Laboratory results published in patent publication US10905675B2, “Use of carbamate compound for prevention, alleviation or treatment of pruritus” (SK BIOPHARMACEUTICALS CO., LTD., priority 2016, dated 2021).

Legend:
[1] = tested on: chronic pruritus induced by administration of capsaicin immediately after birth; assay: Chronic pruritus animal model induced by subcutaneous administration of capsaicin immediately after birth (scratching reactions); assay type: in vivo, rats (Sprague-Dawley); settings: rats, oral 30 mg/kg, 1 hour before measurement, third week after capsaicin, scratching counted for 1 hour
Experimental: Baby rats within 48 hours after birth (Sprague-Dawley, 7 to 10 g) were obtained together with the mother rats, and were used. The experimental animals were maintained at a light-and-darkness cycle of 12 hours (illuminated from 7 pm to 7 am), a temperature of 22 to 25° C., a relative humidity of 40 to 60%, and free access to water and food. Until the 21st day after birth, the baby rats were bred together with the mother rats and allowed to drink the mother's milk. After the 21st day, the baby rats were kept off the milk and separated from the mother rats. The animals were randomly divided into two groups as follows: • Seven (7) rats as a control group, orally administered with 30% PEG400 as a vehicle at a dose of 5 ml/kg • Seven (7) rats, orally administered with the test compound at a dose of 30 mg/kg (5 ml/kg) […]
On the third week after capsaicin administration, the animals were placed in an acrylic box (20×30×20 cm), adapted for 30 minutes in a quiet area, and then observed for the number of scratching behaviors for 1 hour. One continuous scratching reaction was counted as one scratching reaction. […]

[2] = tested on: acute pruritus induced by intradermal administration of serotonin; assay: Acute pruritus animal model induced by intradermal administration of serotonin (scratching reactions); assay type: in vivo, rats (Sprague-Dawley); settings: rats; for inhibition of acute pruritus (number of scratching reactions) compared to the control group: 1 hour before intradermal serotonin, scratching counted for 30 minutes
Experimental: Mature male rats (Sprague-Dawley, 200 to 230 g) were used. The experimental animals were maintained at a light-and-darkness cycle of 12 hours (illuminated from 7 pm to 7 am), a temperature of 22 to 25° C., a relative humidity of 40 to 60%, and free access to water and food. The animals were randomly divided into three groups as follows: • Eight (8) rats as a control group, orally administered with 30% PEG400 as a vehicle at a dose of 5 ml/kg • Eight (8) rats, orally administered with the test compound at a dose of 10 mg/kg (5 ml/kg) • Eight (8) rats, orally administered with the test compound at a dose of 30 mg/kg (5 ml/kg)
On the day before the experiment, the skin fur on the right scapula of the rats was shaved to an area of about 2 cm square. On the day of the experiment, serotonin hydrochloride was dissolved in 0.9% physiological saline at a concentration of 4 mg/ml. The rats were placed in an acrylic box (20×30×20 cm) and adapted for 15 minutes in a quiet area, followed by intradermal administration of the dissolved serotonin in 50 μl per rat on the shaved area (Thomsen et al, Scratch induction in the rat by intradermal serotonin: a model for pruritus, Acta Derm Venereol, 2001).
Only when the rats scratched body parts within 5 cm square around the skin area where serotonin was administered, it was judged to be a valid scratching reaction.
The test compound was orally administered to the rats at a dose of 10 mg/kg (5 ml/kg) and 30 mg/kg (5 ml/kg) 1 hour before intradermal administration of serotonin.

NC(=O)O[C@@H](Cn1ncnn1)c1ccccc1Cl [the test compound]
inhibition of chronic pruritus (number of scratching reactions) compared to the control group [1]: statistically significantly inhibited
dose dependence of the reduction of itching responses ([2]; oral 10 mg/kg and 30 mg/kg): dose-dependent
inhibition of acute pruritus (number of scratching reactions) compared to the control group ([2]; oral 10 mg/kg): statistically significantly inhibited
inhibition of acute pruritus (number of scratching reactions) compared to the control group ([2]; oral 30 mg/kg): statistically significantly inhibited
